Reference: ChEMBL document CHEMBL1158645, “Antitumor agents 37. The isolation and structural elucidation of isohelenol, a new antileukemic sesquiterpene lactone, and isohelenalin from Helenium microcephalum” (1979)

System: P388
Experiment: In vivo antitumor activity against mouse P388 lymphocytic leukemia at 12.5 mg/kg
Format: functional

Compound `C[C@@H]1C[C@H]2OC(=O)C(CO)=C2[C@H](O)[C@]2(C)C(=O)C=C[C@@H]12` [ISOHELENOL] has a T/C of 133%.
